Test [1] relates to P. falciparum K1 (CQ-resistant). Put plainly: [3H]-hypoxanthine incorporation assay, K1 strain. The class given is cell-based. The note with it: Plasmodium falciparum, values marked with asterisk: [3H]-hypoxanthine assay, read-out: IC50 growth inhibition K1 (*).
Test [2] deals with P. falciparum NF54 (CQ sensitive). Put plainly: [3H]-hypoxanthine incorporation assay, NF54 strain. The class given is cell-based. The following applies: Plasmodium falciparum, values marked with asterisk: [3H]-hypoxanthine assay, read-out: IC50 growth inhibition NF54*.

Consider `O=C(Nc1ccc(F)cc1)c1ccccc1OCC(O)CNC12CC3CC(CC(C3)C1)C2` (stereo not shown) [Compound I-3, 2-[3-(Adamantan-1-ylamino)-2-hydroxy-propoxy]-N-(4-fluoro-phenyl)-benzamide], for which the IC50 – broadly, the midpoint of a concentration-inhibition curve – came out at 0.011 µM in test [1] and 0.051 µM in test [2].
In the case of `CC12CC3CC(C)(C1)CC(NCC(O)COc1ccccc1C(=O)Nc1ccc(F)cc1)(C3)C2` (stereo not shown) [Compound I-4, 2-[3-(3,5-Dimethyl-adamantan-1-ylamino)-2-hydroxy-propoxy]-N-(4-fluoro-phenyl)-benzamide], the figures for the IC50 in test [1] and in test [2] were 0.008 µM and 0.038 µM, respectively.
For `O=C(Nc1ccc(F)cc1)c1ccccc1OCC(O)CN1CCN(C23CC4CC(CC(C4)C2)C3)CC1` (stereo not shown) [Compound I-5, 2-[3-(4-Adamantan-1-yl-piperazin-1-yl)-2-hydroxy-propoxy]-N-(4-fluoro-phenyl)-benzamide], the IC50 in test [1] stood at 0.012 µM; in test [2], 0.059 µM.
`O=C(NCCc1ccccc1)c1cc(Cl)ccc1OCC(O)CNC1C2CC3CC(C2)CC1C3` (stereo not shown) [Compound I-10, 2-[3-(Adamantan-2-ylamino)-2-hydroxy-propoxy]-5-chloro-N-phenethyl-benzamide]: the IC50 was 0.026 µM in test [1] and 0.096 µM in test [2].
Regarding `CC(C)CCNC(=O)c1ccccc1OCC(O)CNCC12CC3CC(CC(C3)C1)C2` (stereo not shown) [Compound I-24, 2-{3-[(Adamantan-1-ylmethyl)-amino]-2-hydroxy-propoxy}-N-(3-methyl-butyl)-benzamide], the IC50 in test [1] was 0.036 µM; in test [2] it was 0.134 µM.
For `CC(C)CCNC(=O)c1ccccc1OCC(O)CNC(C)C12CC3CC(CC(C3)C1)C2` (stereo not shown) [Compound I-25, 2-[3-(1-Adamantan-1-yl-ethylamino)-2-hydroxy-propoxy]-N-(3-methyl-butyl)-benzamide], the IC50 in test [1] was 0.018 µM; in test [2], 0.074 µM.
On the same counts, the results for `O=C(NCc1ccc(C(F)(F)F)cc1)c1ccccc1OCC(O)CNCC12CC3CC(CC(C3)C1)C2` (stereo not shown) [Compound I-30, 2-{3-[(Adamantan-1-ylmethyl)-amino]-2-hydroxy-propoxy}-N-(4-trifluoromethyl-benzyl)-benzamide] are 0.018 µM and 0.057 µM.
As to `O=C(NCCc1ccccc1)c1ccccc1OCC(O)CNCC12CC3CC(CC(C3)C1)C2` (stereo not shown) [Compound I-31, 2-{3-[(Adamantan-1-ylmethyl)-amino]-2-hydroxy-propoxy}-N-phenethyl-benzamide], the results for the IC50 in test [1] and in test [2] were 0.03 µM and 0.101 µM, respectively.
On the same counts, the results for `O=C(NCCCc1ccccc1)c1ccccc1OCC(O)CNCC12CC3CC(CC(C3)C1)C2` (stereo not shown) [Compound I-32, 2-{3-[(Adamantan-1-ylmethyl)-amino]-2-hydroxy-propoxy}-N-(3-phenyl-propyl)-benzamide] are 0.052 µM and 0.148 µM.
For the molecule `O=C(NCCc1ccccc1)c1cc(Cl)ccc1OCC(O)CNCC12CC3CC(CC(C3)C1)C2` (stereo not shown) [Compound I-33, 2-{3-[(Adamantan-1-ylmethyl)-amino]-2-hydroxy-propoxy}-5-chloro-N-phenethyl-benzamide], the IC50 in test [1] stood at 0.008 µM; in test [2] it was 0.027 µM.
In the case of `O=C(NCc1cccc2ccccc12)c1cc(Cl)ccc1OCC(O)CNCC12CC3CC(CC(C3)C1)C2` (stereo not shown) [Compound I-34, 2-{3-[(Adamantan-1-ylmethyl)-amino]-2-hydroxy-propoxy}-5-chloro-N-naphthalen-1-ylmethyl-benzamide], the values for the IC50 in test [1] and in test [2] were 0.005 µM and 0.02 µM, respectively.
In the same order, the values of `CC(NCC(O)COc1ccc(Cl)cc1C(=O)NCc1cccc2ccccc12)C12CC3CC(CC(C3)C1)C2` (stereo not shown) [Compound I-35, 2-[3-(1-Adamantan-1-yl-ethylamino)-2-hydroxy-propoxy]-5-chloro-N-naphthalen-1-ylmethyl-benzamide] are 0.004 µM and 0.014 µM.
In the same order, the values of `CN(CC(O)COc1ccccc1C(=O)NCc1ccccc1)CC12CC3CC(CC(C3)C1)C2` (stereo not shown) [Compound I-36, 2-[3-(Adamantan-1-ylmethyl-methyl-amino)-2-hydroxy-propoxy]-N-benzyl-benzamide] are 0.182 µM and 0.67 µM.
In the case of `CN(CC(O)COc1ccccc1C(=O)Nc1ccc(F)cc1)CC12CC3CC(CC(C3)C1)C2` (stereo not shown) [Compound I-37, 2-[3-(Adamantan-1-ylmethyl-methyl-amino)-2-hydroxy-propoxy]-N-(4-fluoro-phenyl)-benzamide], the values for the IC50 in test [1] and in test [2] were 0.016 µM and 0.063 µM, respectively.
Regarding `O=C(Nc1ccccc1F)c1ccccc1OCC(O)CNCC12CC3CC(CC(C3)C1)C2` (stereo not shown) [Compound I-38, 2-{3-[(Adamantan-1-ylmethyl)-amino]-2-hydroxy-propoxy}-N-(2-fluoro-phenyl)-benzamide], the IC50 in test [1] came to 0.008 µM; in test [2] it was 0.024 µM.
As for `CN(CC(O)COc1ccccc1C(=O)NCc1ccc(C2(C(F)(F)F)N=N2)cc1)C1C2CC3CC(C2)CC1C3` (stereo not shown) [Compound I-43, 2-[3-(Adamantan-2-yl-methyl-amino)-2-hydroxy-propoxy]-N-[4-(3-trifluoromethyl-3H-diazirin-3-yl)-benzyl]-benzamide], the IC50 is 0.028 µM in test [1] and 0.119 µM in test [2].
As to `C#CCOc1ccc(OCC(O)CNCc2ccc(C3(C(F)(F)F)N=N3)cc2)c(C(=O)Nc2ccc(F)cc2)c1` (stereo not shown) [Compound I-45, N-(4-Fluoro-phenyl)-2-{2-hydroxy-3-[4-(3-trifluoromethyl-3H-diazirin-3-yl)-benzylamino]-propoxy}-5-prop-2-ynyloxy-benzamide], the IC50 in test [1] amounted to 0.542 µM; in test [2], 1.86 µM.
As for `O=C(Nc1ccc(F)cc1)c1ccccc1OCC(O)CN1CCC(c2ccccc2)CC1` (stereo not shown) [Compound I-46, N-(4-Fluoro-phenyl)-2-[2-hydroxy-3-(4-phenyl-piperidin-1-yl)-propoxy]-benzamide], the IC50 in test [1] stood at 0.009 µM; in test [2], 0.026 µM.
On to `O=C(Nc1ccc(F)cc1)c1ccccc1OCC(O)CN1CCC(Cc2ccccc2)CC1` (stereo not shown) [Compound I-47, 2-[3-(4-Benzyl-piperidin-1-yl)-2-hydroxy-propoxy]-N-(4-fluoro-phenyl)-benzamide], for which the figures for the IC50 in test [1] and in test [2] were 0.007 µM and 0.016 µM, respectively.
`O=C(Nc1ccc(F)cc1)c1ccccc1OCC(O)CN1CCN(C(c2ccccc2)c2ccccc2)CC1` (stereo not shown) [Compound I-48, 2-[3-(4-Benzhydryl-piperazin-1-yl)-2-hydroxy-propoxy]-N-(4-fluoro-phenyl)-benzamide]: the results for the IC50 in test [1] and in test [2] were 0.004 µM and 0.014 µM, respectively.
As for `CCCCNCC(O)COc1ccccc1C(=O)NCCC(C)C` (stereo not shown) [Compound I-56, 2-(3-Butylamino-2-hydroxy-propoxy)-N-(3-methyl-butyl)-benzamide], the IC50 in test [1] turned out to be 0.827 µM; in test [2], 2.75 µM.
In the same order, the values of `CCCCN(CCCC)CC(O)COc1ccccc1C(=O)NCCC(C)C` (stereo not shown) [Compound I-57, 2-(3-Dibutylamino-2-hydroxy-propoxy)-N-(3-methyl-butyl)-benzamide] are 0.076 µM and 0.333 µM.
On the same counts, the results for `CC(C)CCNCC(O)COc1ccccc1C(=O)NCCC(C)C` (stereo not shown) [Compound I-58, 2-[2-Hydroxy-3-(3-methyl-butylamino)-propoxy]-N-(3-methyl-butyl)-benzamide] are 0.467 µM and 1.69 µM.
Consider `CC(C)CCNC(=O)c1ccccc1OCC(O)CNCc1ccc(C(F)(F)F)cc1` (stereo not shown) [Compound I-60, 2-[2-Hydroxy-3-(4-trifluoromethyl-benzylamino)-propoxy]-N-(3-methyl-butyl)-benzamide], for which the IC50 was 0.371 µM in test [1] and 1.36 µM in test [2].
Consider `CCCCN(CCCC)CC(O)COc1ccccc1C(=O)Nc1ccc(F)cc1` (stereo not shown) [Compound I-61, 2-(3-Dibutylamino-2-hydroxy-propoxy)-N-(4-fluoro-phenyl)-benzamide], for which the results for the IC50 in test [1] and in test [2] were 0.006 µM and 0.018 µM, respectively.
Regarding `C=CCNCC(O)COc1ccccc1C(=O)Nc1ccccc1CC=C` (stereo not shown) [Compound I-65, 2-(3-Allylamino-2-hydroxy-propoxy)-N-(2-allyl-phenyl)-benzamide], the figures for the half-inhibitory concentration (IC50) in test [1] and in test [2] were 0.488 µM and 2.55 µM, respectively.
With `O=C(Nc1ccc(F)cc1)c1cc(Cl)ccc1OCC(O)CNCC12CC3CC(CC(C3)C1)C2` (stereo not shown) [Compound I-66, 2-{3-[(Adamantan-1-ylmethyl)-amino]-2-hydroxy-pro-poxy}-5-chloro-N-(4-fluoro-phenyl)-benzamide], the IC50 in test [1] came to 0.0006 µM; in test [2], 0.0024 µM.
Turning to `O=C(Nc1cccc(C(F)(F)F)c1)c1ccccc1OCC(O)CN1CCC(c2ccccc2)CC1` (stereo not shown) [Compound I-67, 2-[2-Hydroxy-3-(4-phenyl-piperidin-1-yl)-propoxy]-N-(3-trifluoromethyl-phenyl)-benzamide], the IC50 amounted to 0.0022 µM in test [1] and 0.0088 µM in test [2].
As to `O=C(Nc1cccc(C(F)(F)F)c1)c1ccccc1OCC(O)CN1CCC(Cc2ccccc2)CC1` (stereo not shown) [Compound I-68, 2-[3-(4-Benzyl-piperidin-1-yl)-2-hydroxy-propoxy]-N-(3-trifluoromethyl-phenyl)-benzamide], the IC50 in test [1] was 0.0023 µM; in test [2], 0.0086 µM.
With `O=C(Nc1cccc(C(F)(F)F)c1)c1ccccc1OCC(O)CN1CCN(C(c2ccccc2)c2ccccc2)CC1` (stereo not shown) [Compound I-69, 2-[3-(4-Benzhydryl-piperazin-1-yl)-2-hydroxy-propoxy]-N-(3-trifluoromethyl-phenyl)-benzamide], the IC50 in test [1] is 0.0013 µM; in test [2], 0.0055 µM.
`O=C(Nc1cccc(C(F)(F)F)c1)c1ccccc1OCC(O)CNC12CC3CC(CC(O)(C3)C1)C2` (stereo not shown) [Compound I-70, 2-[2-Hydroxy-3-(3-hydroxy-adamantan-1-ylamino)-propoxy]-N-(3-trifluoromethyl-phenyl)-benzamide]: the IC50 in test [1] stood at 0.921 µM; in test [2], 1.5 µM.
As to `O=C(Nc1ccc2ccccc2c1)c1ccccc1OCC(O)CNCC12CC3CC(CC(C3)C1)C2` (stereo not shown) [Compound I-71, 2-{3-[(Adamantan-1-ylmethyl)-amino]-2-hydroxy-propoxy}-N-naphthalen-2-yl-benzamide], the IC50 in test [1] came out at 0.0018 µM; in test [2] it was 0.0062 µM.

Source of the values: patent US20150141437A1, “AMIDOPHENOXYPROPANOLAMINES” (MEDIZINISCHE UNIVERSITÄT WIEN, priority 2012, published 2015).
